Reference: PMC7144563 (Molecules, 2020)

Experimental: Cellulose membrane was properly treated and mounted in the Franz diffusion cells (diffusion area 4.9 cm^2, compartment volume 20 mL). The acceptor compartment was filled with PBS pH 7.4 and the donor compartment was filled with 1 mL of the formulation described above (100 μg/mL of the compounds). Permeation studies were conducted under constant stirring (90 rpm) at 37 °C. Samples of 0.5 mL were withdrawn from the acceptor compartment at predetermined time intervals (30 min, 1 h, 2 h, 4 h, 6 h, 8 h) and replaced with fresh and preheated PBS. Experiments were repeated in triplicates for each compound and blank experiments containing only the medium were also performed. The samples were analyzed by HPLC without any previous pretreatment.
Steady state flux (Jss) was calculated from the slope of the linear section of the plot of the amount of permeated compound per unit area (μg/cm^2) against to time. The apparent permeability coefficient (Papp) was calculated using Equation (3), where Cd is the initial concentration of the drug in the donor compartment and Jss is the steady state flux. (3) Papp=Jss/Cd

Compound: C[C@]12CCC(=O)C[C@@H]1CC[C@@H]1[C@@H]2CC[C@]2(C)[C@@H](O)CC[C@@H]12 [COMP 3, Androstanolone]
- Papp values compared to the rest of the tested steroids (during the first 4 h (2 h and 4 h) of the in vitro permeability study, considered outlier): significantly higher

Compound: C[C@]12C=CC(=O)C=C1CC[C@@H]1[C@@H]2C(=O)C[C@@]2(C)[C@H]1CC[C@]2(O)C(=O)CO [COMP 27, Prednisone]
- apparent permeability coefficient (Papp) (pH 7.4): highest
